The values that follow are results of earlier work, collected in US20030165566A1, “Sedative non-benzodiazepine formulations” (priority 2002, published 2003).

The conditions of data set [1]: in vivo.
The conditions of data set [2]: 10 mg.
Where [3] appears, read: single 20 mg oral dose, elderly (>70 years) vs 20 to 40 years.
Setting [4] is: single 20 mg oral dose, elderly subjects (>70 years).
The mark [5] stands for this setting: single 20 mg oral dose, younger adults (20 to 40 years).
The mark [6] stands for this setting: 20 minutes after a meal vs fasting.

Where a name gives a salt, the structure may show the parent alone. Read-outs that look alike come from different tables or passages of the source.

Consider `Cc1ccc(-c2nc3ccc(C)cn3c2CC(=O)N(C)C)cc1` [Zolpidem], for which, under setting [3], the “increase of mean AUC, elderly vs younger adults” value is listed as 64%; the “increase of mean Cmax, elderly vs younger adults” value was 50%; the “increase of mean T1/2, elderly vs younger adults” value is 32%. Also, under setting [4], the “mean AUC” value is 1,562 ng/hr/ml, the “mean Cmax” value was 0.284 µg/mL and the “mean T1/2” value is 2.9 h. Under setting [5], the “mean AUC” value is 955 ng/h/mL, the “mean Cmax” value was 0.255 µg/mL and the “mean T1/2” value is 2.2 h. The half-life entry in data set [1] is reported as “approximately 2.5 hours”.

For `Cc1ccc(-c2nc3ccc(C)cn3c2CC(=O)N(C)C)cc1` [zolpidem tartrate], the “mean Tmax” value in data set [2] (20 minutes after a meal) is 2.2 h. In data set [2] (setting [6]), the “decrease of mean AUC with food” value was 15%, the “decrease of mean Cmax with food” value is 25%, the half-life with food result is “remained unchanged” and the “prolongation of mean Tmax with food” value is 60%. The “mean Tmax” value in data set [2] (fasting) is 1.4 h. Besides, where the note is “elderly subjects, nightly oral dosing 10 mg for 1 week”, the accumulation entry is reported as “did not accumulate”.
